Measurements as given in patent US10294202B2, “Pyrrolidinones as herbicides” (FMC Corporation, priority 2013, dated 2019).

Columns and labels:
kochia = test: Test C pre-/postemergence herbicide test; assay type: in vivo, Kochia scoparia
Summary of the method: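 Two application timings ran in parallel with identically formulated test chemicals (non-phytotoxic solvent, surfactant included): spray on seeded loam–sand soil, and spray on emerged plants 2 to 18 cm high. Evaluation at 13 to 15 days compared each species with controls, rated from 0 up to 100.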

field poppy = test: Test D pre-/postemergence herbicide test; assay type: in vivo, Papaver rhoeas; details: for Plant response rating: Field Poppy, scale 0 to 100; for Plant response rating, Field Poppy: scale 0 to 100 (0 no effect, 100 complete control)
Source text: Seeds of plant species selected from bluegrass (annual bluegrass, Poa annua), blackgrass (Alopecurus myosuroides), canarygrass (littleseed canarygrass, Phalaris minor), chickweed (common chickweed, Stellaria media), galium (catchweed bedstraw, Galium aparine), bromegrass, downy (downy bromegrass, Bromus tectorum), field poppy (Papaver rhoeas), field violet (Viola arvensis), foxtail, green (green foxtail, Setaria viridis), deadnettle (henbit deadnettle, Lamium amplexicaule), ryegrass, Italian (Italian ryegrass, Lolium multiflorum), kochia (Kochia scoparia), lambsquarters (Chenopodium album), oilseed rape (Brassica napus), pigweed (Amaranthus retroflexus), chamomile (scentless chamomile, Matricaria inodora), Russian thistle (Salsola kali), speedwell (bird's-eye speedwell, Veronica persica), barley, spring (spring barley, Hordeum vulgare), wheat, spring (spring wheat, Triticum aestivum), buckwheat, wild (wild buckwheat, Polygonum convolvulus), mustard, wild (wild mustard, Sinapis arvensis), oat, wild (wild oat, Avena fatua), radish, wild (wild radish, Raphanus raphanistrum), […]), barley, winter (winter barley, Hordeum vulgare), and wheat, winter (winter wheat, Triticum aestivum) were planted into a silt loam soil and treated preemergence with test chemicals formulated in a non-phytotoxic solvent mixture which included a surfactant. At the same time, these species were planted in pots containing Redi-Earth® planting medium (Scotts Company, 14111 Scottslawn Road, Marysville, Ohio 43041) comprising spaghnum peat moss, vermiculite, wetting agent and starter nutrients and treated with postemergence applications of the test chemicals formulated in the same manner. Plants ranged in height from 2 to 18 cm (1- to 4-leaf stage). Treated plants and controls were maintained in a controlled growth environment for 7 to 21 days after which time all species were compared to controls and visually evaluated. Plant response ratings, summarized in Table D, are based on a scale of 0 to 100 where 0 is no effect and 100 is complete control. A dash (-) response means no test result.

goosegrass = test: Test E preemergence herbicide test; assay type: in vivo, Eleusine indica; set-up: key: 0 = no effect, 100 = complete control
Source text: (§1) Seeds of plant species selected from corn (Zea mays), soybean (Glycine max), velvetleaf (Abutilon theophrasti), lambsquarters (Chenopodium album), wild poinsettia (Euphorbia heterophylla), pigweed, palmer (palmer pigweed, Amaranthus palmeri), waterhemp (common waterhemp, Amaranthus rudis), surinam grass (Brachiaria decumbens), crabgrass, large (large crabgrass, Digitaria sanguinalis), crabgrass, Brazil (Brazilian crabgrass, Digitaria horizontalis), panicum, fall (fall panicum, Panicum dichotomiflorum), foxtail, giant (giant foxtail, Setaria faberii), foxtail, green (green foxtail, Setaria viridis), goosegrass (Eleusine indica), johnsongrass (Sorghum halepense), ragweed (common ragweed, Ambrosia elatior), barnyardgrass (Echinochloa crus-galli), sandbur (southern sandbur, Cenchrus echinatus), arrowleaf […] rhombifolia), ryegrass, Italian (Italian ryegrass, Lolium multiflorum), dayflower, VA (Virginia dayflower, Commelina virginica), field bindweed (Convolvulus arvensis), morningglory (Ipomoea coccinea), nightshade (eastern black nightshade, Solanum ptycanthum), kochia (Kochia scoparia), nutsedge, yellow (yellow nutsedge, Cyperus esculentus), cocklebur (common cocklebur, Xanthium strumarium), smartweed (ladysthumb smartweed, Polygonum Persicaria) and beggarticks (hairy beggarticks, Bidens pilosa), were planted into a silt loam soil and treated preemergence with test chemicals formulated in a non-phytotoxic solvent mixture which included a surfactant. Treated plants and controls were maintained in a greenhouse for 21 days, after which time all species were compared to controls and visually evaluated. Plant response ratings, summarized in Table E, are based on a scale of 0 to 100 where 0 is no effect and 100 is complete control. A dash (-) response means no test result.

dayflower, VA = test: Test E preemergence herbicide test; assay type: in vivo, Commelina virginica; set-up: key: 0 = no effect, 100 = complete control
Source text: as §1

surinam grass = test: Test C pre-/postemergence herbicide test; assay type: in vivo, Brachiaria decumbens; details: Preemergence
Source text: Seeds of plant species selected from blackgrass (Alopecurus myosuroides), ryegrass, Italian (Italian ryegrass, Lolium multiflorum), wheat (winter wheat, Triticum aestivum), galium (catchweed bedstraw, Galium aparine), corn (Zea mays), crabgrass, large (large crabgrass, Digitaria sanguinalis), foxtail, giant (giant foxtail, Setaria faberii), johnsongrass (Sorghum halepense), lambsquarters (Chenopodium album), morningglory (Ipomoea coccinea), nutsedge, yellow (yellow nutsedge, Cyperus esculentus), pigweed (Amaranthus retroflexus), ragweed (common ragweed, Ambrosia elatior), soybean (Glycine max), barnyardgrass (Echinochloa crus-galli), oilseed rape (Brassica napus), waterhemp (common waterhemp, Amaranthus rudis), kochia (Kochia scoparia), oat, wild (wild oat, Avena fatua), surinam grass (Brachiaria decumbens), foxtail, green (green foxtail, Setaria viridis), goosegrass (Eleusine indica), bromegrass, downy (downy bromegrass, Bromus tectorum), nightshade (eastern black nightshade, Solanum ptycanthum), cocklebur (common cocklebur, Xanthium strumarium), cupgrass, woolly (woolly cupgrass, Eriochloa villosa), bermudagrass (Cynodon dactylon), sunflower, (common oilseed sunflower, Helianthus annuus), Russian thistle (Salsola kali) and velvetleaf (Abutilon theophrasti) were planted into a blend of loam soil and sand and treated preemergence with test chemicals formulated in a non-phytotoxic solvent mixture which included a surfactant. At the same time, plants selected from these crop and weed species and also barley (winter barley, Hordeum vulgare), […]), chickweed (common chickweed, Stellaria media), deadnettle (henbit deadnettle, Lamium amplexicaule), and canarygrass (littleseed canarygrass, Phalaris minor) were planted in pots containing Redi-Earth® planting medium (Scotts Company, 14111 Scottslawn Road, Marysville, Ohio 43041) comprising spaghnum peat moss, vermiculite, wetting agent and starter nutrients and treated with postemergence applications of test chemicals formulated in the same manner. Plants ranged in height from 2 to 18 cm (1- to 4-leaf stage) for postemergence treatments. Treated plants and controls were maintained in a greenhouse for 13 to 15 days, after which time all species were compared to controls and visually evaluated. Plant response ratings, summarized in Table C, are based on a scale of 0 to 100 where 0 is no effect and 100 is complete control. A dash (-) response means no test result.

[1] = Postemergence, 125 g ai/ha, scale 0 to 100 (0 no effect, 100 complete control)
[2] = Postemergence, 250 g ai/ha, scale 0 to 100 (0 no effect, 100 complete control)
[3] = Postemergence, 31 g ai/ha, scale 0 to 100 (0 no effect, 100 complete control)
[4] = Postemergence, 62 g ai/ha, scale 0 (no effect) to 100 (complete control)

| Compound | Plant response rating, Kochia (kochia; [1]) | Plant response rating, Kochia (kochia; [2]) | Plant response rating (field poppy; Postemergence, 31 g ai/ha) | Plant response rating (field poppy; Postemergence, 62 g ai/ha) | Plant response rating (field poppy; Postemergence, 125 g ai/ha) | Plant response rating (field poppy; Postemergence, 250 g ai/ha) | Plant response rating, Field Poppy (field poppy; Preemergence, 62 g ai/ha) | Plant response rating, Field Poppy (field poppy; Preemergence, 31 g ai/ha) | Plant response rating (field poppy; Preemergence, 125 g ai/ha) | Plant response rating (field poppy; Preemergence, 250 g ai/ha) | Plant response rating, Goosegrass (goosegrass; 31 g ai/ha) | Plant response rating, Goosegrass (goosegrass; 62 g ai/ha) | Plant response rating, Goosegrass (goosegrass; 125 g ai/ha) | Plant response rating, Goosegrass (goosegrass; 250 g ai/ha) | Plant response rating, Dayflower, VA (dayflower, VA; 31 g ai/ha) | Plant response rating, Dayflower, VA (dayflower, VA; 62 g ai/ha) | Plant response rating, Dayflower, VA (dayflower, VA; 125 g ai/ha) | Plant response rating, Dayflower, VA (dayflower, VA; 250 g ai/ha) | Plant response rating, Kochia (kochia; [3]) | Plant response rating, Kochia (kochia; [4]) | also measured |
| --- | --- | --- | --- | --- | --- | --- | --- | --- | --- | --- | --- | --- | --- | --- | --- | --- | --- | --- | --- | --- | --- |
| O=C1NCC(c2ccc(C(F)(F)F)cc2)C1C(=O)Nc1cccc(F)c1F (stereo not drawn) [Compound 80, N-(2,3-difluorophenyl)-2-oxo-4-[4-(trifluoromethyl)phenyl]-3-pyrrolidinecarboxamide] | 65 | 65 | 25 | 55 | 20 | 50 | 100 | 90 | 100 | 100 | 30 | 60 | 70 | 80 | 0 | 0 | 0 | 0 |  |  | Plant response rating, Kochia (kochia; Postemergence, 31 g ai/ha, scale 0 (no effect) to 100 (complete control)): 30; Plant response rating, Kochia (kochia; Postemergence, 62 g ai/ha, scale 0 to 100 (0 no effect, 100 complete control)): 55; Plant response rating, Goosegrass (goosegrass; 16 g ai/ha): 10; Plant response rating, Dayflower, VA (dayflower, VA; 16 g ai/ha): 0 |
| O=C1NC[C@H](c2cccc(C(F)(F)F)c2)[C@H]1C(=O)Nc1ccccc1F [Compound 204, (3R,4S)—N-(2-fluorophenyl)-2-oxo-4-[3-(trifluoromethyl)phenyl]-3-pyrrolidinecarboxamide] | 40 | 40 |  |  |  |  | 85 | 75 |  | 95 | 0 | 0 | 0 | 0 | 0 | 0 | 20 | 30 | 10 | 30 | Plant response rating, Field Poppy (field poppy; Preemergence, 125 g ai/ha): 80 |
| O=C1NCC(c2ccc(OC(F)F)cc2)C1C(=O)Nc1cccc(F)c1F (racemic) [Compound 350] |  |  |  |  |  |  |  |  |  |  | 0 | 0 | 0 | 25 | 0 | 0 | 0 | 40 |  |  |  |
| O=C1NCC(c2ccc(Cl)c(Cl)c2)C1C(=O)Nc1ccccc1F (racemic) [Compound 14] |  |  |  |  |  |  |  |  |  |  | 0 | 0 | 0 | 0 | 0 | 0 | 0 | 0 |  |  | Plant response rating, Kochia (kochia; Preemergence, 62 g ai/ha, scale 0 to 100): 0; Plant response rating, Kochia (kochia; Preemergence, 125 g ai/ha, scale 0 to 100 (0 no effect, 100 complete control)): 0; Plant response rating, Surinam Grass (surinam grass; 62 g ai/ha, scale 0 to 100): 80; Plant response rating, Surinam Grass (surinam grass; 125 g ai/ha, scale 0 to 100 (0 no effect, 100 complete control)): 95; Plant response rating, Goosegrass (goosegrass; 16 g ai/ha): 0; Plant response rating, Dayflower, VA (dayflower, VA; 16 g ai/ha): 0 |
| O=C1NCC(c2ccc(C(F)(F)F)cc2)C1C(=O)Nc1cccc(F)c1F (racemic) [Compound 202] | 80 | 80 | 0 | 75 | 100 | 100 | 85 | 85 | 90 | 100 | 35 | 70 | 90 | 98 | 0 | 0 | 0 | 40 | 70 | 75 |  |
| O=C1NC[C@H](c2cccc(C(F)(F)F)c2)[C@H]1C(=O)Nc1cccc(F)c1F [Compound 206] | 30 | 70 |  |  |  |  | 90 | 80 |  | 95 | 0 | 0 | 70 | 90 | 0 | 0 | 0 | 20 | 50 | 70 | Plant response rating, Field Poppy (field poppy; Preemergence, 125 g ai/ha): 90 |
